Test results as given in US12077503B2, “Substituted cyclic amides and their use as herbicides” (FMC CORPORATION, priority 2015, dated 2024).

Experiments:
Assay type in all cases: in vivo
[1] = tested on: ivy-leaved morning glory (Ipomoea hederacea); test: Test G Pre-Emergence Protocol; conditions: Ipomoea, pre-emergence, 312 h, evaluated after 13 days
Method in brief: (§1)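 Pre-emergence spray, 15.625/62.5/250 g/ha, vehicle acetone:water 50:50 + 0.5% Tween 20, applied 1 d after sowing. Glasshouse 24/16° C, 14 h light, 65% RH, watered twice daily. Visual damage rating at 13 d, 0–100 scale.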

[2] = tested on: giant foxtail (Setaria faberi); test: Test G Pre-Emergence Protocol; conditions: Setaria faberi, pre-emergence, 312 h, evaluated after 13 days
Method in brief: as §1

[3] = tested on: redroot pigweed (Amaranthus retroflexus); test: Test G Pre-Emergence Protocol; conditions: Amaranthus retroflexus, pre-emergence, 312 h, evaluated after 13 days
Method in brief: as §1

[4] = tested on: corn (Zea mays); test: Test G Pre-Emergence Protocol; conditions: Zea mays, pre-emergence, 312 h, evaluated after 13 days
Method in brief: as §1

[5] = tested on: barnyardgrass (Echinochloa crus-galli); test: Test G Pre-Emergence Protocol; conditions: Echinochloa crus-galli, pre-emergence, 312 h, evaluated after 13 days
Method in brief: as §1

[6] = tested on: velvetleaf (Abutilon theophrasti); test: Test G Pre-Emergence Protocol; conditions: Abutilon theophrasti, pre-emergence, 312 h, evaluated after 13 days
Method in brief: as §1

[7] = tested on: ivy-leaved morning glory (Ipomoea hederacea); test: Test G Post-Emergence Protocol; conditions: Ipomoea, post-emergence, 312 h, read-out: Morningglory, Ivy-leaved damage rating
Method in brief: (§2)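 Eight days post-sowing, plants received a spray of test compound (acetone/water 50:50, 0.5% Tween 20) at 15.625, 62.5 or 250 g/ha. Glasshouse regime thereafter: 24/16 °C, 14 h light, 65% humidity. Assessment after 13 days on a 0–100 damage scale.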

[8] = tested on: giant foxtail (Setaria faberi); test: Test G Post-Emergence Protocol; conditions: Setaria faberi, post-emergence, 312 h, read-out: Foxtail, Giant damage rating
Method in brief: as §2

[9] = tested on: redroot pigweed (Amaranthus retroflexus); test: Test G Post-Emergence Protocol; conditions: Amaranthus retroflexus, post-emergence, 312 h, read-out: Pigweed, Redroot damage rating
Method in brief: as §2

[10] = tested on: corn (Zea mays); test: Test G Post-Emergence Protocol; conditions: Zea mays, post-emergence, 312 h, read-out: Corn damage rating
Method in brief: as §2

[11] = tested on: barnyardgrass (Echinochloa crus-galli); test: Test G Post-Emergence Protocol; conditions: Echinochloa crus-galli, post-emergence, 312 h, read-out: Barnyardgrass damage rating
Method in brief: as §2

[12] = tested on: velvetleaf (Abutilon theophrasti); test: Test G Post-Emergence Protocol; conditions: Abutilon theophrasti, post-emergence, 312 h, read-out: Velvetleaf damage rating
Method in brief: as §2

[13] = 15.625 g ai/ha, evaluated after 13 days (100=total damage to plant; 0=no damage to plant)
[14] = 62.5 g ai/ha, evaluated after 13 days, 100=total damage to plant, 0=no damage to plant
[15] = 250 g ai/ha, evaluated after 13 days, 100=total damage to plant, 0=no damage to plant

Which pest or weed control at 15.625 g/ha ([1]; 15.625 g ai/ha, read-out: Morningglory, Ivy-leaved damage rating (100=total damage to plant; 0=no damage to plant)) does the source give for `CN1C[C@H](c2ccc(C(F)(F)F)cc2)[C@@H](C(=O)Nc2cnccc2S(C)(=O)=O)C1=O` (racemic) [Compound 1746] here?
The pest or weed control at 15.625 g/ha was 0%.

What about the pest or weed control at 62.5 g/ha ([1]; 62.5 g ai/ha, 100=total damage to plant, 0=no damage to plant, read-out: Morningglory, Ivy-leaved damage rating) of the same compound?
Its pest or weed control at 62.5 g/ha is 0%.

What about the pest or weed control at 250 g/ha ([1]; 250 g ai/ha, read-out: Morningglory, Ivy-leaved damage rating (100=total damage to plant; 0=no damage to plant)) of the same compound?
The pest or weed control at 250 g/ha was 10%.

What about the pest or weed control at 15.625 g/ha ([2]; 15.625 g ai/ha, read-out: Foxtail, Giant damage rating (100=total damage to plant; 0=no damage to plant)) of the same compound?
Its pest or weed control at 15.625 g/ha is 0%.

What about the pest or weed control at 62.5 g/ha ([2]; 62.5 g ai/ha, 100=total damage to plant, 0=no damage to plant, read-out: Foxtail, Giant damage rating) of the same compound?
The pest or weed control at 62.5 g/ha was 20%.

And the pest or weed control at 250 g/ha ([2]; 250 g ai/ha, read-out: Foxtail, Giant damage rating (100=total damage to plant; 0=no damage to plant))?
Its pest or weed control at 250 g/ha is 70%.

What about the pest or weed control at 15.625 g/ha ([3]; 15.625 g ai/ha, read-out: Pigweed, Redroot damage rating (100=total damage to plant; 0=no damage to plant)) of the same compound?
Its pest or weed control at 15.625 g/ha is 0%.

What about the pest or weed control at 62.5 g/ha ([3]; 62.5 g ai/ha, 100=total damage to plant, 0=no damage to plant, read-out: Pigweed, Redroot damage rating) of the same compound?
Its pest or weed control at 62.5 g/ha is 0%.

What about the pest or weed control at 250 g/ha ([3]; 250 g ai/ha, read-out: Pigweed, Redroot damage rating (100=total damage to plant; 0=no damage to plant)) of the same compound?
The pest or weed control at 250 g/ha was 20%.

What about the plant injury at 15.625 g/ha ([4]; 15.625 g ai/ha, read-out: Corn damage rating (100=total damage to plant; 0=no damage to plant)) of the same compound?
The plant injury at 15.625 g/ha was 0%.

And the plant injury at 62.5 g/ha ([4]; 62.5 g ai/ha, 100=total damage to plant, 0=no damage to plant, read-out: Corn damage rating)?
The plant injury at 62.5 g/ha was 0%.

And the plant injury at 250 g/ha ([4]; 250 g ai/ha, read-out: Corn damage rating (100=total damage to plant; 0=no damage to plant))?
Its plant injury at 250 g/ha is 0%.

And the pest or weed control at 15.625 g/ha ([5]; 15.625 g ai/ha, read-out: Barnyardgrass damage rating (100=total damage to plant; 0=no damage to plant))?
Its pest or weed control at 15.625 g/ha is 0%.

What about the pest or weed control at 62.5 g/ha ([5]; 62.5 g ai/ha, 100=total damage to plant, 0=no damage to plant, read-out: Barnyardgrass damage rating) of the same compound?
The pest or weed control at 62.5 g/ha was 0%.

And the pest or weed control at 250 g/ha ([5]; 250 g ai/ha, read-out: Barnyardgrass damage rating (100=total damage to plant; 0=no damage to plant))?
Its pest or weed control at 250 g/ha is 50%.

And the pest or weed control at 15.625 g/ha ([6]; 15.625 g ai/ha, read-out: Velvetleaf damage rating (100=total damage to plant; 0=no damage to plant))?
The pest or weed control at 15.625 g/ha was 0%.

And the pest or weed control at 62.5 g/ha ([6]; 62.5 g ai/ha, 100=total damage to plant, 0=no damage to plant, read-out: Velvetleaf damage rating)?
The pest or weed control at 62.5 g/ha was 0%.

What about the pest or weed control at 250 g/ha ([6]; 250 g ai/ha, read-out: Velvetleaf damage rating (100=total damage to plant; 0=no damage to plant)) of the same compound?
Its pest or weed control at 250 g/ha is 10%.

And the pest or weed control at 15.625 g/ha [7, 13]?
Its pest or weed control at 15.625 g/ha is 0%.

What about the pest or weed control at 62.5 g/ha [7, 14] of the same compound?
The pest or weed control at 62.5 g/ha was 10%.

What about the pest or weed control at 250 g/ha [7, 15] of the same compound?
Its pest or weed control at 250 g/ha is 60%.

What about the pest or weed control at 15.625 g/ha [8, 13] of the same compound?
Its pest or weed control at 15.625 g/ha is 0%.

What about the pest or weed control at 62.5 g/ha [8, 14] of the same compound?
The pest or weed control at 62.5 g/ha was 10%.

And the pest or weed control at 250 g/ha [8, 15]?
Its pest or weed control at 250 g/ha is 70%.

What about the pest or weed control at 15.625 g/ha [9, 13] of the same compound?
Its pest or weed control at 15.625 g/ha is 0%.

And the pest or weed control at 62.5 g/ha [9, 14]?
Its pest or weed control at 62.5 g/ha is 20%.

What about the pest or weed control at 250 g/ha [9, 15] of the same compound?
The pest or weed control at 250 g/ha was 20%.

What about the plant injury at 15.625 g/ha [10, 13] of the same compound?
Its plant injury at 15.625 g/ha is 0%.

And the plant injury at 62.5 g/ha [10, 14]?
Its plant injury at 62.5 g/ha is 0%.

And the plant injury at 250 g/ha [10, 15]?
Its plant injury at 250 g/ha is 10%.

And the pest or weed control at 15.625 g/ha [11, 13]?
The pest or weed control at 15.625 g/ha was 0%.

What about the pest or weed control at 62.5 g/ha [11, 14] of the same compound?
The pest or weed control at 62.5 g/ha was 0%.

And the pest or weed control at 250 g/ha [11, 15]?
The pest or weed control at 250 g/ha was 40%.

What about the pest or weed control at 15.625 g/ha [12, 13] of the same compound?
The pest or weed control at 15.625 g/ha was 0%.

And the pest or weed control at 62.5 g/ha [12, 14]?
The pest or weed control at 62.5 g/ha was 0%.

What about the pest or weed control at 250 g/ha [12, 15] of the same compound?
The pest or weed control at 250 g/ha was 10%.
